Several values for one entry are separate records, joined by “and”; a condition that tells them apart may be missing. Identical values can stand only once. Toxic doses and inconclusive results are not listed.
Tested on: BDF1 mice, B16 melanoma ip, median survival T/C
Test: NCI In Vivo Anticancer Drug Screen. Data for tumor model B16 Melanoma (intraperitoneal) in B6D2F1 (BDF1) mice
Settings: endpoint: median survival time, higher = longer survival
In short: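 Read-out: survival or tumor size, given as treated/control ratio. Controls received vehicle only; animals bore transplantable tumors.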

[1] = dose: 100.0 mg/kg/injection, schedule: Q01DX009 (ip), vehicle: saline with Tween-80
[2] = dose: 200.0 mg/kg/injection, schedule: Q01DX009 (ip), vehicle: saline with Tween-80
[3] = dose: 400.0 mg/kg/injection, schedule: Q01DX009 (ip), vehicle: saline with Tween-80
[4] = dose: 25.0 mg/kg/injection, schedule: Q04DX003 (ip), vehicle: Klucel (hydroxypropylcellulose) (HPC)
[5] = dose: 50.0 mg/kg/injection, schedule: Q04DX003 (ip), vehicle: Klucel (hydroxypropylcellulose) (HPC)
[6] = dose: 100.0 mg/kg/injection, schedule: Q04DX003 (ip), vehicle: Klucel (hydroxypropylcellulose) (HPC)
[7] = dose: 200.0 mg/kg/injection, schedule: Q04DX003 (ip), vehicle: Klucel (hydroxypropylcellulose) (HPC)
[8] = dose: 50.0 mg/kg/injection, schedule: Q01DX009 (ip), vehicle: saline with Tween-80
[9] = dose: 50.0 mg/kg/injection, schedule: Q01DX009 (ip), vehicle: Klucel (hydroxypropylcellulose) (HPC)
[10] = dose: 25.0 mg/kg/injection, schedule: Q01DX009 (ip), vehicle: saline with Tween-80

SMILES: ClCCCN1CCCCC1CCl (stereo not drawn)
- T/C (dose: 3.12 mg/kg/injection, schedule: Q01DX009 (ip), vehicle: saline): 111 % of control
- T/C (dose: 3.12 mg/kg/injection, schedule: Q04DX003 (ip), vehicle: saline): 105 % of control
- T/C (dose: 6.25 mg/kg/injection, schedule: Q04DX003 (ip), vehicle: saline): 116 % of control
- T/C (dose: 8.33 mg/kg/injection, schedule: Q01DX009 (ip), vehicle: water): 155 % of control and 159 % of control
- T/C (dose: 12.5 mg/kg/injection, schedule: Q01DX009 (ip), vehicle: saline): 176 % of control
- T/C (dose: 12.5 mg/kg/injection, schedule: Q01DX009 (ip), vehicle: water): 185 % of control and 192 % of control

SMILES: CCCCCCCCCCCC(=O)CC
- T/C (dose: 100.0 mg/kg/injection, schedule: Q01DX009 (ip), vehicle: other): 96 % of control
- T/C (dose: 200.0 mg/kg/injection, schedule: Q01DX009 (ip), vehicle: other): 87 % of control

SMILES: C=COC(=O)CCCCCCCCCCCCCCCCC
- T/C (dose: 20.0 mg/kg/injection, schedule: Q01DX009 (ip), vehicle: Klucel (hydroxypropylcellulose) (HPC)): 94 % of control
- T/C (dose: 40.0 mg/kg/injection, schedule: Q01DX009 (ip), vehicle: Klucel (hydroxypropylcellulose) (HPC)): 94 % of control
- T/C (dose: 80.0 mg/kg/injection, schedule: Q01DX009 (ip), vehicle: Klucel (hydroxypropylcellulose) (HPC)): 92 % of control

SMILES: Nc1ccc(S(=O)(=O)c2ccc(NCNc3ccc(S(=O)(=O)c4ccc(N)cc4)cc3)cc2)cc1
- T/C [1]: 88 % of control
- T/C [2]: 92 % of control
- T/C [3]: 90 % of control

SMILES: Cc1cc(C(C)C)cc(C(C)C)c1
- T/C (dose: 6.25 mg/kg/injection, schedule: Q04DX003 (ip), vehicle: Klucel (hydroxypropylcellulose) (HPC)): 102 % of control
- T/C (dose: 12.5 mg/kg/injection, schedule: Q04DX003 (ip), vehicle: Klucel (hydroxypropylcellulose) (HPC)): 108 % of control
- T/C [4]: 105 % of control
- T/C [5]: 88 % of control
- T/C [6]: 98 % of control
- T/C [7]: 97 % of control

SMILES: CCC[CH2][Sn]1([CH2]CCC)[N](S(=O)(=O)c2ccc(C)cc2)c2ccccc2[N]1S(=O)(=O)c1ccc(C)cc1
- T/C (dose: 1.5 mg/kg/injection, schedule: Q01DX009 (ip), vehicle: Klucel (hydroxypropylcellulose) (HPC)): 87 % of control
- T/C (dose: 3.0 mg/kg/injection, schedule: Q01DX009 (ip), vehicle: Klucel (hydroxypropylcellulose) (HPC)): 102 % of control

SMILES: CC1(C)c2ccccc2C(C)(C(Cl)(Cl)Cl)c2ccc(Cl)cc21 (stereo not drawn)
- T/C [8]: 97 % of control
- T/C [1]: 103 % of control
- T/C [2]: 91 % of control
- T/C [3]: 93 % of control

SMILES: CCCCCC(C)(O)CCCCC
- T/C (dose: 100.0 mg/kg/injection, schedule: Q01DX009 (ip), vehicle: saline): 107 % of control
- T/C (dose: 200.0 mg/kg/injection, schedule: Q01DX009 (ip), vehicle: saline): 92 % of control

SMILES: COc1cc(NC(=O)CN(CCCl)CCCl)cc(OC)c1OC
- T/C [1]: 170 % of control
- T/C [3]: 161 % of control

SMILES: C[As](C)[Se]C1OC(CO)C(O)C(O)C1O (stereo not drawn)
- T/C (dose: 12.5 mg/kg/injection, schedule: Q01DX009 (ip), vehicle: Klucel (hydroxypropylcellulose) (HPC)): 112 % of control
- T/C (dose: 25.0 mg/kg/injection, schedule: Q01DX009 (ip), vehicle: Klucel (hydroxypropylcellulose) (HPC)): 106 % of control
- T/C [9]: 104 % of control

SMILES: Cc1ccc(NC(=O)Nc2cccc(C(F)(F)F)c2)cc1NC(=O)Nc1cccc(C(F)(F)F)c1
- T/C [10]: 103 % of control
- T/C [8]: 91 % of control
- T/C [1]: 96 % of control

SMILES: COc1ccc(/C=C\C(=O)/C=C/c2ccc(OC)cc2)cc1
- T/C [4]: 97 % of control
- T/C [5]: 97 % of control
- T/C [6]: 97 % of control

SMILES: Clc1ccc(C(Cl)(Cl)Cl)cc1Cl
- T/C [9]: 103 % of control
- T/C [5]: 102 % of control
- T/C (dose: 100.0 mg/kg/injection, schedule: Q01DX009 (ip), vehicle: Klucel (hydroxypropylcellulose) (HPC)): 92 % of control
- T/C [6]: 102 % of control
- T/C (dose: 200.0 mg/kg/injection, schedule: Q01DX009 (ip), vehicle: Klucel (hydroxypropylcellulose) (HPC)): 96 % of control
- T/C [7]: 119 % of control

SMILES: CCCCCCC(=O)/C=C/c1cccc(OCOCC)c1
- T/C (dose: 12.5 mg/kg/injection, schedule: Q01DX009 (ip), vehicle: saline with Tween-80): 99 % of control
- T/C [10]: 94 % of control
- T/C [8]: 102 % of control
- T/C [1]: 98 % of control

SMILES: Cc1ccc(C(=O)/C=C/c2ccccc2O)cc1
- T/C (dose: 37.5 mg/kg/injection, schedule: Q01DX009 (ip), vehicle: Klucel (hydroxypropylcellulose) (HPC)): 103 % of control
- T/C (dose: 75.0 mg/kg/injection, schedule: Q01DX009 (ip), vehicle: Klucel (hydroxypropylcellulose) (HPC)): 90 % of control
- T/C (dose: 150.0 mg/kg/injection, schedule: Q01DX009 (ip), vehicle: Klucel (hydroxypropylcellulose) (HPC)): 98 % of control
- T/C (dose: 300.0 mg/kg/injection, schedule: Q01DX009 (ip), vehicle: Klucel (hydroxypropylcellulose) (HPC)): 88 % of control
